Assay results: the supplement of paper PMC13380429

Assays:
Conditions in all cases: 72 h
Caco-2 [1] = assay: cell viability relative to DMSO; higher = less toxic
Calu-3 [2] = assay: as above
HepG2 [3] = assay: as above
U2OS [4] = assay: as above
Vero E6 [5] = assay: as above
Caco-2 [6] = assay: relative viability EC50 (midpoint between 100% and the lowest measured viability); higher = less toxic
Calu-3 [7] = assay: as above
HepG2 [8] = assay: as above
U2OS [9] = assay: as above
Vero E6 [10] = assay: as above
Caco-2 [11] = assay: drug sensitivity score (DSS) for viability; higher = more toxic; extreme values may be limits of the assay
Calu-3 [12] = assay: as above
HepG2 [13] = assay: as above
U2OS [14] = assay: as above
Vero E6 [15] = assay: as above

Compound | cell viability (Caco-2 [1]; 1 nM) | cell viability (Caco-2 [1]; 10 nM) | cell viability (Caco-2 [1]; 100 nM) | cell viability (Caco-2 [1]; 1000 nM) | cell viability (Caco-2 [1]; 10000 nM) | cell viability (Calu-3 [2]; 1 nM) | cell viability (Calu-3 [2]; 10 nM) | cell viability (Calu-3 [2]; 100 nM) | cell viability (Calu-3 [2]; 1000 nM) | cell viability (Calu-3 [2]; 10000 nM) | cell viability (HepG2 [3]; 1 nM) | cell viability (HepG2 [3]; 10 nM) | cell viability (HepG2 [3]; 100 nM) | cell viability (HepG2 [3]; 1000 nM) | cell viability (HepG2 [3]; 10000 nM) | cell viability (U2OS [4]; 1 nM) | cell viability (U2OS [4]; 10 nM) | cell viability (U2OS [4]; 100 nM) | cell viability (U2OS [4]; 1000 nM) | cell viability (U2OS [4]; 10000 nM) | cell viability (Vero E6 [5]; 1 nM) | cell viability (Vero E6 [5]; 10 nM) | cell viability (Vero E6 [5]; 100 nM) | cell viability (Vero E6 [5]; 1000 nM) | cell viability (Vero E6 [5]; 10000 nM) | relative viability EC50 (Caco-2 [6]) | relative viability EC50 (Calu-3 [7]) | relative viability EC50 (HepG2 [8]) | relative viability EC50 (U2OS [9]) | relative viability EC50 (Vero E6 [10]) | drug sensitivity score (Caco-2 [11]) | drug sensitivity score (Calu-3 [12]) | drug sensitivity score (HepG2 [13]) | drug sensitivity score (U2OS [14]) | drug sensitivity score (Vero E6 [15])
O=C(c1cncc(Br)c1)N1CCC(N2CCCC2)CC1 [UNC669] | 99.1% | 105% | 90.5% | 111% | 92.7% | 99.3% | 110% | 93.7% | 98.4% | 98.3% | 98.3% | 102% | 103% | 93.4% | 101% | 97.1% | 106% | 95.1% | 102% | 93.6% | 101% | 102% | 95.7% | 100% | 97.8% | > 10 µM | > 10 µM | > 10 µM | > 10 µM | > 10 µM | 0 | 0 | 0 | 0 | 0
C[C@H](NC(=O)/C(C#N)=C/c1cccc(Br)n1)c1ccccc1 [WP1066] | 95.8% | 96.7% | 96.4% | 104% | 20.1% | 102% | 93% | 90.6% | 103% | 75.4% | 100% | 101% | 105% | 94.2% | 10.3% | 102% | 99.2% | 105% | 98.5% | 0.7% | 97.3% | 96.8% | 98.3% | 97.6% | 15.9% | 3.45 µM | > 10 µM | 2.66 µM | 3.06 µM | 2.96 µM | 4.1 | 0.8 | 5.8 | 5.7 | 5
CN(Cc1cccc(-c2ccccc2)c1)C(=O)Oc1ccc(-c2ccc(C(N)=O)cc2)cc1 [WWL-123] | 99.1% | 95.4% | 98.1% | 91.8% | 84.8% | 101% | 99.7% | 101% | 105% | 99.4% | 95.9% | 110% | 108% | 102% | 100% | 101% | 98.7% | 102% | 98% | 101% | 101% | 100% | 101% | 99.5% | 98.3% | > 10 µM | > 10 µM | > 10 µM | > 10 µM | > 10 µM | 0.4 | 0 | 0 | 0 | 0
C[n+]1c2cc(N)ccc2cc2ccc(N)cc21.Nc1ccc2cc3ccc(N)cc3nc2c1 [acriflavine] | 91.9% | 101% | 93.6% | 65.2% | 19.2% | 103% | 93.1% | 102% | 73% | 15.4% | 91.6% | 95.3% | 88.9% | 29.2% | 0.7% | 98.1% | 100% | 96.6% | 95.8% | 0% | 97% | 100% | 98.8% | 95.1% | 2.8% | 1.17 µM | 1.35 µM | 0.49 µM | 2.85 µM | 2.77 µM | 8.5 | 8.6 | 14.9 | 6.1 | 6.1
NC(=O)c1ccc([N+](=O)[O-])cc1Cl [aklomide] | 95.9% | 95.3% | 100% | 92.2% | 98.1% | 112% | 106% | 112% | 98.9% | 103% | 95.5% | 95.9% | 100% | 91% | 102% | 107% | 103% | 99.4% | 101% | 103% | 98.4% | 98.4% | 95.8% | 96.6% | 104% | > 10 µM | > 10 µM | > 10 µM | > 10 µM | > 10 µM | 0 | 0 | 0 | 0 | 0
Oc1ncnc2[nH]ncc12 [allopurinol] | 91.5% | 97% | 104% | 89.6% | 100% | 100% | 98% | 90.4% | 98% | 94.1% | 113% | 99.6% | 99.5% | 103% | 91.7% | 100% | 103% | 102% | 99.2% | 101% | 107% | 104% | 92% | 101% | 93.9% | > 10 µM | > 10 µM | > 10 µM | > 10 µM | > 10 µM | 0 | 0 | 0 | 0 | 0
NCC[C@H](O)C(=O)N[C@@H]1C[C@H](N)[C@@H](O[C@H]2O[C@H](CN)[C@@H](O)[C@H](O)[C@H]2O)[C@H](O)[C@H]1O[C@H]1O[C@H](CO)[C@@H](O)[C@H](N)[C@H]1O [amikacin] | 95.7% | 103% | 99.5% | 104% | 104% | 100% | 99.7% | 94.9% | 105% | 91.5% | 101% | 104% | 96.6% | 92.6% | 113% | 97.5% | 98.3% | 98.9% | 103% | 97.9% | 94.8% | 98.5% | 96.9% | 94.5% | 103% | > 10 µM | > 10 µM | > 10 µM | > 10 µM | > 10 µM | 0 | 0 | 0 | 0 | 0
Cc1ccc(/N=C/N(C)/C=N/c2ccc(C)cc2C)c(C)c1 [amitraz] | 94.1% | 99.5% | 91.8% | 104% | 88.1% | 95.1% | 104% | 98.1% | 105% | 96.1% | 96% | 81.2% | 103% | 87.4% | 92.2% | 101% | 99.2% | 94.6% | 95.5% | 87.8% | 94.8% | 103% | 95.8% | 95.6% | 104% | > 10 µM | > 10 µM | > 10 µM | > 10 µM | > 10 µM | 0 | 0 | 0 | 0 | 0
CC(C)(C#N)c1cc(Cn2cncn2)cc(C(C)(C)C#N)c1 [anastrozole] | 89.4% | 101% | 92.9% | 96.9% | 95.8% | 97.1% | 98.7% | 93.8% | 116% | 103% | 89.5% | 94.3% | 96.1% | 97.5% | 96.4% | 92.7% | 98.3% | 96.3% | 104% | 113% | 94% | 99.2% | 97.7% | 99.3% | 107% | > 10 µM | > 10 µM | > 10 µM | > 10 µM | > 10 µM | 0 | 0 | 0 | 0 | 0
COc1ccc(C2C(=O)c3ccccc3C2=O)cc1 [anisindione] | 101% | 93.8% | 100% | 98.3% | 95.3% | 112% | 106% | 108% | 95.7% | 108% | 107% | 111% | 105% | 108% | 94.7% | 101% | 97.8% | 102% | 106% | 105% | 95.1% | 92.1% | 94.7% | 89.5% | 105% | > 10 µM | > 10 µM | > 10 µM | > 10 µM | > 10 µM | 0 | 0 | 0 | 0 | 0
O=C1C(=O)N(Cc2ccc(Cl)c(Cl)c2)c2ccccc21 [apoptosis-activator-II] | 91.6% | 104% | 93.3% | 96.7% | 84.5% | 95.7% | 93% | 103% | 92.6% | 89% | 103% | 98% | 108% | 107% | 84.5% | 99.2% | 98.9% | 94% | 94.4% | 30.2% | 106% | 102% | 103% | 102% | 87.8% | > 10 µM | > 10 µM | > 10 µM | 2.5 µM | > 10 µM | 0.2 | 0 | 0.1 | 4.7 | 0
CCc1cccc(N(C)C(=N)Nc2cccc3ccccc23)c1 [aptiganel] | 98.1% | 95.6% | 96.4% | 94.5% | 82% | 106% | 105% | 93.2% | 92.5% | 75.1% | 97.6% | 97.2% | 96.1% | 96% | 85.8% | 101% | 107% | 98.5% | 97.5% | 88.2% | 98.2% | 100% | 103% | 96.7% | 88.8% | > 10 µM | > 10 µM | > 10 µM | > 10 µM | > 10 µM | 0.7 | 1.4 | 0.1 | 0.1 | 0.1
CCCCN(CCCC)C(=O)CN1C[C@H](c2ccc3c(c2)OCO3)[C@@H](C(=O)O)[C@@H]1c1ccc(OC)cc1 [atrasentan] | 101% | 99.8% | 98.3% | 88.3% | 99.3% | 98.7% | 94.6% | 114% | 104% | 109% | 106% | 104% | 92.6% | 104% | 97.6% | 94.4% | 94.4% | 102% | 94.5% | 106% | 104% | 105% | 98.8% | 98.8% | 104% | > 10 µM | > 10 µM | > 10 µM | > 10 µM | > 10 µM | 0 | 0 | 0 | 0 | 0
CC[C@H]1OC(=O)[C@H](C)[C@@H](O[C@H]2C[C@@](C)(OC)[C@@H](O)[C@H](C)O2)[C@H](C)[C@@H](O[C@@H]2O[C@H](C)C[C@H](N(C)C)[C@H]2O)[C@](C)(O)C[C@@H](C)CN(C)[C@H](C)[C@@H](O)[C@]1(C)O [azithromycin] | 89.6% | 104% | 96.7% | 101% | 92.2% | 96.2% | 94.5% | 104% | 89.8% | 106% | 111% | 105% | 83.5% | 105% | 92% | 95.5% | 98.7% | 104% | 96.6% | 98.2% | 107% | 103% | 100% | 99.7% | 101% | > 10 µM | > 10 µM | > 10 µM | > 10 µM | > 10 µM | 0 | 0 | 0 | 0 | 0
